Data: patent US10065941B2, “Aminotriazine derivative and pharmaceutical composition comprising the same” (Shionogi & Co., Ltd., priority 2013, dated 2018)

System: not listed separately
Test: Pharmacokinetic test: bioavailability and total body clearance (Test Example 15)
Type: in vivo
Settings: SD rats, from AUCs of oral and intravenous groups
Protocol: • (1) Animals: SD rats were used • (2) Breeding conditions: SD rats were allowed to freely take solid food and sterilized tap water. • (3) Dose and grouping: orally or intravenously administered at a predetermined dose; grouping was as follows (Dose depends on the compound)
Oral administration: 1 mg/kg (n=2)
The total body clearance (CLtot) was calculated by dividing the dose by the AUC of the intravenous administration group.

In order of falling BA:
1. C[C@@H](Cn1c(=O)[nH]/c(=N\c2ccc(Oc3cccc(Cl)n3)cc2)n(Cc2ccc(Cl)cc2)c1=O)C(=O)O [Compound I-014]  106.2%
2. O=C(O)C1(Cn2c(=O)[nH]/c(=N\c3ccc(Oc4cccc(F)n4)cc3)n(Cc3ccc(Cl)cc3)c2=O)CC1 [Compound I-017]  80.7%
3. Cc1ccc(Cn2c(=O)n(C[C@H](C)C(=O)O)c(=O)[nH]/c2=N\c2ccc(Oc3ccc(F)cn3)cc2)cc1 [Compound I-040]  70.3%
4. Cc1ccc(Oc2ccc(/N=c3\[nH]c(=O)n(CC(C)(C)C(=O)O)c(=O)n3Cc3ccc(Cl)cc3)cc2)nc1 [Compound I-058]  67.2%
5. C[C@@H](Cn1c(=O)[nH]/c(=N\c2ccc(Oc3ccccn3)cc2)n(Cc2ccc(Cl)cc2)c1=O)C(=O)O [Compound I-127]  52.8%

System: not listed separately
Test: Metabolism stability test, pooled human hepatic microsomes (Test Example 11)
Type: in vitro ADME
Settings: human liver microsomes, 30 minutes, compound concentration 0.5 μmol/L
Protocol: Using commercially available pooled human hepatic microsomes, a test compound is reacted for a constant time, a remaining rate is calculated by comparing a reacted sample and an unreacted sample, thereby, a degree of metabolism in liver is assessed.
A reaction was performed (oxidative reaction) at 37° C. for 0 minute or 30 minutes in the presence of 1 mmol/L NADPH in 0.2 mL of a buffer (50 mmol/L tris-HCl pH 7.4, 150 mmol/L potassium chloride, 10 mmol/L magnesium chloride) containing 0.5 mg protein/mL of human liver microsomes. After the reaction, 50 μL of the reaction solution was added to 100 μL of a methanol/acetonitrile=1/1 (v/v), mixed and centrifuged at 3000 rpm for 15 minutes. The test compound in the supernatant was quantified by LC/MS/MS, and a remaining amount of the test compound after the reaction was calculated, letting a compound amount at 0 minute reaction time to be 100%.
The remaining rate at the compound concentration 0.5 μmol/L are shown below.

In order of falling “Metabolism Stability (remaining rate)” value:
1. C[C@@H](Cn1c(=O)[nH]/c(=N\c2ccc(Oc3cc(F)ccn3)cc2)n(Cc2ccc(Cl)cc2)c1=O)C(=O)O [Compound I-070]  103%
2. C[C@@H](Cn1c(=O)[nH]/c(=N\c2ccc(Oc3cccc(F)n3)cc2)n(Cc2ccc(F)cc2F)c1=O)C(=O)O [Compound I-029]  100%
3. O=c1[nH]/c(=N\c2ccc(Oc3ncccc3F)cc2)n(Cc2ccc(Cl)cc2)c(=O)n1[C@H]1C[C@H](C(=O)O)C1 [Compound I-063]  97%

Biological target: human P2X3 receptor (Homo sapiens (Human), UniProt P56373)
Test: Evaluation of human P2X3 receptor inhibitory activity (Test Example 1)
Type: cell-based
Settings: C6BU-1 cell transfected with human P2X3 receptor gene, FLIPR 384
Method in brief: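 FLIPR calcium read-out: signal taken as peak fluorescence after ATP addition divided by starting fluorescence, and IC50 calculated from it. Compound added 5 min before 150 nM ATP solution (pre-dispense stock) to Fluo-3-AM-loaded C6BU-1 cells stably transfected with human P2X3; HEPES buffer pH 7.5 with probenecid.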

human P2X3 receptor, sequence (P56373 whole entry): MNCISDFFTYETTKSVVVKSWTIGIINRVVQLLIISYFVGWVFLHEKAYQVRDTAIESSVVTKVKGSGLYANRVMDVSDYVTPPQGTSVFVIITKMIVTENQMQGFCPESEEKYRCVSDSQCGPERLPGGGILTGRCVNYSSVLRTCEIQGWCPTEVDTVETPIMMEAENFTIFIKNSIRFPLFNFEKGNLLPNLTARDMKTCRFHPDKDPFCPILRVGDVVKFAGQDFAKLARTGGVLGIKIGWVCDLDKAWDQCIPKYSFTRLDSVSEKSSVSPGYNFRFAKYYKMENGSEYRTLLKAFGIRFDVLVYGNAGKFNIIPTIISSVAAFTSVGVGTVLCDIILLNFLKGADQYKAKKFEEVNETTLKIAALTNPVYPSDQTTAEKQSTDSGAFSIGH

In order of falling IC50:
1. COC(=O)c1ccc(NC(=O)c2cccc(Oc3ccc(/N=c4\[nH]c(=O)n(C)c(=O)n4C[C@H]4CC[C@H](C)CC4)cc3)n2)cc1 [Compound R-004]  123 nM
2. Cc1cc(/N=c2\[nH]c(=O)n(CC(C)(C)C(=O)O)c(=O)n2Cc2ccc(Cl)cc2)ccc1N1CCCCC1 [Compound R-143]  97 nM
3. COC(=O)[C@H](C)[C@H](C)n1c(=O)[nH]/c(=N\c2ccc(Oc3cccc(Cl)n3)cc2)n(Cc2ccc(Cl)cc2)c1=O [Compound I-013]  58 nM
4. COC(=O)[C@H](C)[C@H](C)n1c(=O)[nH]/c(=N\c2ccc(Oc3cc(F)nc(F)c3)cc2)n(Cc2ccc(Cl)cc2)c1=O [Compound R-156]  35 nM
5. COC(=O)[C@@H](C)Cn1c(=O)[nH]/c(=N\c2ccc(Oc3ncccc3F)cc2)n(Cc2ccc(F)cc2F)c1=O [Compound I-024]  34 nM
6. COCc1cccc(Oc2ccc(/N=c3\[nH]c(=O)n(C[C@H](C)C(=O)O)c(=O)n3Cc3ccc(C)cc3)cc2)n1 [Compound I-256]  29 nM
7. CCc1oc2ccc(/N=c3\[nH]c(=O)n(C[C@H](C)C(=O)OC)c(=O)n3Cc3ccc(C)cc3)cc2c1C [Compound R-220]  22 nM
8. COC(=O)[C@@H](C)Cn1c(=O)[nH]/c(=N\c2ccc(Oc3cc(C)ccn3)cc2)n(Cc2ccc(Cl)cc2)c1=O [Compound I-076]  22 nM
9. COC(=O)[C@H](C)[C@H](C)n1c(=O)[nH]/c(=N\c2ccc(Oc3cc(C#N)ccn3)cc2)n(Cc2ccc(Cl)cc2)c1=O [Compound I-075]  21 nM
10. COC(=O)C(C)(C)Cn1c(=O)[nH]/c(=N\c2ccc(Oc3ncccc3C#N)cc2)n(Cc2ccc(Cl)cc2)c1=O [Compound I-046]  19 nM
11. O=C(O)C1(Cn2c(=O)[nH]/c(=N\c3ccc(Oc4cccc(F)n4)cc3)n(Cc3ccc(Cl)cc3)c2=O)COC1 [Compound I-049]  15 nM
12. C[C@@H](Cn1c(=O)[nH]/c(=N\c2ccc(Oc3cccc(F)n3)cc2)n(Cc2ccc(F)cc2F)c1=O)C(=O)O [Compound I-029]  14 nM
13. CC(C)(Cn1c(=O)[nH]/c(=N\c2ccc(Oc3ncccn3)c(F)c2)n(Cc2ccc(Cl)cc2)c1=O)C(=O)O [Compound R-165]  14 nM
14. CC(C)(Cn1c(=O)[nH]/c(=N\c2ccc(Oc3cnccn3)cc2)n(Cc2ccc(Cl)cc2)c1=O)C(=O)O [Compound R-020]  13 nM
15. COC(=O)[C@@H](C)Cn1c(=O)[nH]/c(=N\c2ccc(Oc3ccccn3)c(F)c2)n(Cc2ccc(Cl)cc2)c1=O [Compound I-205]  12 nM
16. COC(=O)C(C)(C)Cn1c(=O)[nH]/c(=N\c2ccc(Oc3ncc(C)s3)cc2)n(Cc2ccc(Cl)cc2)c1=O [Compound R-149]  12 nM
17. C[C@@H](Cn1c(=O)[nH]/c(=N\c2ccc(Oc3ncccn3)cc2)n(Cc2ccc(Cl)cc2)c1=O)C(=O)O [Compound R-078]  10 nM
18. C[C@@H](C(=O)O)[C@H](C)n1c(=O)[nH]/c(=N\c2ccc(Oc3cc(Cl)ccn3)cc2)n(Cc2ccc(Cl)cc2)c1=O [Compound I-091]  10 nM
19. C[C@@H](Cn1c(=O)[nH]/c(=N\c2ccc(Oc3ncccn3)c(F)c2)n(Cc2ccc(Cl)cc2)c1=O)C(=O)O [Compound R-164]  10 nM
20. O=c1[nH]/c(=N\c2ccc(Oc3ncccc3F)cc2)n(Cc2ccc(Cl)cc2)c(=O)n1[C@H]1C[C@H](C(=O)O)C1 [Compound I-063]  9 nM
21. C[C@@H](Cn1c(=O)[nH]/c(=N\c2ccc(Oc3cccnc3)cc2)n(Cc2ccc(Cl)cc2)c1=O)C(=O)O [Compound R-207]  9 nM
22. COC(=O)[C@H](C)[C@H](C)n1c(=O)[nH]/c(=N\c2ccc(Oc3ccc(Cl)cn3)cc2)n(Cc2ccc(C)cc2)c1=O [Compound I-120]  9 nM
23. C[C@@H](Cn1c(=O)[nH]/c(=N\c2ccc(Oc3ccccn3)cc2)n(CC2CCC3(CC2)CC3)c1=O)C(=O)O [Compound I-202]  8 nM
24. C[C@@H](Cn1c(=O)[nH]/c(=N\c2ccc(Oc3cccc(Cl)n3)cc2)n(Cc2ccc(Cl)cc2)c1=O)C(=O)O [Compound I-014]  7 nM
25. O=C(O)CCn1c(=O)[nH]/c(=N\c2ccc(Oc3ccccn3)c(F)c2)n(Cc2ccc(Cl)cc2)c1=O [Compound R-281]  7 nM
26. O=C(O)C1(Cn2c(=O)[nH]/c(=N\c3ccc(Oc4cccc(F)n4)cc3)n(Cc3ccc(Cl)cc3)c2=O)CC1 [Compound I-017]  6 nM
27. Cc1ccc(Oc2ccc(/N=c3\[nH]c(=O)n(CC(C)(C)C(=O)O)c(=O)n3Cc3ccc(Cl)cc3)cc2)nc1 [Compound I-058]  6 nM
28. C[C@@H](C(=O)O)[C@H](C)n1c(=O)[nH]/c(=N\c2ccc(Oc3ccc(OC(F)F)cn3)cc2)n(Cc2ccc(Cl)cc2)c1=O [Compound I-072]  6 nM
29. COC(=O)[C@@H](C)Cn1c(=O)[nH]/c(=N\c2ccc(Oc3ncc(C)s3)cc2)n(Cc2ccc(C)cc2)c1=O [Compound R-214]  6 nM
30. COC(=O)[C@H](Cn1c(=O)[nH]/c(=N\c2ccc(Oc3ncccc3F)cc2)n(Cc2ccc(Cl)cc2)c1=O)OC [Compound I-099]  6 nM
31. C[C@@H](Cn1c(=O)[nH]/c(=N\c2ccc(Oc3cc(F)ccn3)cc2)n(Cc2ccc(Cl)cc2)c1=O)C(=O)O [Compound I-070]  5 nM
32. C[C@@H](Cn1c(=O)[nH]/c(=N\c2ccc(Oc3ccncc3)cc2)n(Cc2ccc(Cl)cc2)c1=O)C(=O)O [Compound R-208]  5 nM
33. CO[C@@H](Cn1c(=O)[nH]/c(=N\c2ccc(Oc3ncccc3F)cc2)n(Cc2ccc(Cl)cc2)c1=O)C(=O)O [Compound I-102]  5 nM
34. C[C@@H](Cn1c(=O)[nH]/c(=N\c2ccc(Oc3ccnc(C#N)c3)cc2)n(Cc2ccc(Cl)cc2)c1=O)C(=O)O [Compound R-123]  5 nM
35. COC(=O)CCn1c(=O)[nH]/c(=N\c2ccc(Oc3ccc(Cl)cn3)cc2)n(Cc2ccc(C)cc2)c1=O [Compound R-289]  5 nM
36. Cc1ccc(Cn2c(=O)n([C@@H](C)[C@@H](C)C(=O)O)c(=O)[nH]/c2=N\c2ccc(Oc3ccc(C)cn3)cc2)cc1 [Compound I-113]  5 nM
37. CC(=O)c1ccc(Oc2ccc(/N=c3\[nH]c(=O)n(C[C@H](C)C(=O)O)c(=O)n3Cc3ccc(Cl)cc3)cc2)nc1 [Compound I-259]  5 nM
38. COC(=O)[C@@H](C)Cn1c(=O)[nH]/c(=N\c2ccc(Oc3ccc(CF)cn3)cc2)n(Cc2ccc(Cl)cc2)c1=O [Compound I-238]  5 nM
39. C[C@@H](Cn1c(=O)[nH]/c(=N\c2ccc(Oc3ccccn3)cc2)n(Cc2ccc(Cl)cc2)c1=O)C(=O)O [Compound I-127]  4 nM
40. C=C(CO)Cn1c(=O)[nH]/c(=N\c2ccc(Oc3ccccn3)cc2)n(Cc2ccc(Cl)cc2)c1=O [Compound R-254, 1-(4-chlorobenzyl)-3-(2-hydroxymethyl-2-propenyl)-6-[4-(2-pyridyloxy)phenylimino]-1,3,5-triazinane-2,4-dione]  3 nM
